Data published in publication PMC3025325, “Identification of a κ-opioid agonist as a potent and selective lead for drug development against human African trypanosomiasis” (Biochemical Pharmacology, 2010).
Counter-ions that a name gives are not always drawn. Like-named read-outs stand apart in the source and are kept apart here.

What was measured:
T. brucei [1] = assay: DMSO tolerance of the resazurin assay, T. brucei; format: cell-based
Description: (§1) DMSO was serially diluted across a 96-well plate in 200 μl of the appropriate medium. For T. brucei, 100 μl aliquots were then transferred to a plate containing 100 μl cells at 2 × 10^3 ml^−1. Human fibroblasts were plated at 2 × 10^4 ml^−1 in 100 μl of medium and incubated overnight to allow cells to adhere before the addition of medium containing DMSO (100 μl) over a range of concentrations. Parasites and mammalian cells were then incubated for 3 days, after which 20 μl 500-μM resazurin was added to each well. Plates were incubated for a further 4 h before measuring fluorescence as above.

human fibroblasts (MRC5) = assay: DMSO tolerance of the resazurin assay, human fibroblasts; format: cell-based
Description: as §1

[2] = system: bloodstream forms of Trypanosoma brucei; assay: Resazurin cell viability assay, EC50 determinations against T. brucei; format: cell-based, T. b. brucei (strain 427)
MRC5 cells = assay: Resazurin cell viability counter-screen, EC50 determinations against mammalian cells; format: cell-based, human; conditions: for EC50: read-out: EC50 vs. MRC5
T. brucei [3] = system: T. brucei
T. brucei [4] = assay: microbe, parasite or virus in culture; conditions: Trypanosoma brucei, read-out: EC50 by direct counting of cell growth
[5] = Trypanosoma brucei, 72 h, read-out: EC50 of standard drugs against T. brucei
[6] = read-out: EC50 of standard drugs against T. brucei

C[S+](C)[O-] [DMSO]
IC50 of DMSO (T. brucei [1]; 3 days incubation): 0.80 ± 0.06 % (v/v)
Attenuation of fluorescence (T. brucei [1]; DMSO 0.5%): 20%
IC50 of DMSO (human fibroblasts (MRC5); 3 days incubation): 1.04 ± 0.08 % (v/v)
Attenuation of fluorescence (human fibroblasts (MRC5); DMSO 0.5%): 15%

N=C(N)c1ccc(OCCCCCOc2ccc(C(=N)N)cc2)cc1 [Pentamidine isethionate]
EC99 (calculated/predicted from EC50 and Hill slope) [2]: 37 nM
EC50 [2, 5]: 8.1 ± 0.54 nM
EC50 [2, 6]: 8 nM
Selectivity (MRC5 cells): 3400
Effect on T. brucei culture growth (T. brucei [3]): cytocidal effect
Time for cell density to drop below the limit of detection (1 × 10^3 cells ml−1) (T. brucei [3]): ≤ 40 h

CC[C@]1(O)C[C@@H]2CN(CCc3c([nH]c4ccccc34)[C@@](C(=O)OC)(c3cc4c(cc3OC)N(C)[C@H]3[C@@](O)(C(=O)OC)[C@H](OC(C)=O)[C@]5(CC)C=CCN6CC[C@]43[C@@H]65)C2)C1.O=S(=O)(O)O [Vinblastine sulfate salt]
EC50 ([2]; read-out: EC50 vs. T. brucei): 94 ± 6 nM
Selectivity (MRC5 cells): 8.3
EC50 (MRC5 cells): 780 ± 910 nM

CC[C@]1(O)C[C@H]2CN(CCc3c([nH]c4ccccc34)[C@@](C(=O)OC)(c3cc4c(cc3OC)N(C=O)[C@H]3[C@@](O)(C(=O)OC)[C@H](OC(C)=O)[C@]5(CC)C=CCN6CC[C@]43[C@@H]65)C2)C1 [Vincristine sulfate]
EC50 ([2]; Trypanosoma brucei, 72 h, LOPAC hits (library screening), 3 days incubation, mean of 3 determinations weighted to standard error, read-out: EC50 vs. T. brucei): 30 ± 1 nM
Selectivity (MRC5 cells): 0.02
EC50 (MRC5 cells; Homo sapiens, MRC5, 72 h): 0.6 ± 1 nM

NCCCC(N)(C(=O)O)C(F)F (stereo not drawn) [eflornithine, difluoromethylornithine]
EC99 (calculated from EC50 and Hill slope) [2]: 77000 nM
EC50 [2, 5]: 22400 ± 1100 nM
EC50 [2, 6]: 22000 nM
Time after which cell growth was arrested (T. brucei [3]; 10 × EC50): 30 h
Effect on T. brucei culture growth (T. brucei [3]; 10 × EC50, 3 days): cytostatic effect
EC50 (T. brucei [4]): 17100 ± 100 nM

Dequalinium analogue, C-14 linker
EC50 ([2]; read-out: EC50 vs. T. brucei): 70 ± 4.6 nM
Selectivity (MRC5 cells): 14

Oligomycin A
EC50 ([2]; read-out: EC50 vs. T. brucei): 150 ± 3.1 nM
Selectivity (MRC5 cells): 120
Selectivity / specificity for T. brucei over human fibroblasts (MRC5 cells): greater than 100 fold
